Drawing on PubChem BioAssay (NCI), this text covers TGI and GI50 for nine compounds.

Each structure is given as a SMILES string. Several values for one entry are separate records, joined by “and”; a condition that tells them apart may be missing. Equal entries are not always repeated.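 Growth conditions: 96-well plates. Treatment: test compound, 48 hours, 5 concentrations. Analysis: linear interpolation between bracketing concentrations; unreached endpoints set to highest concentration. Here, GI50 denotes the concentration required for 50% inhibition of growth. TGI: concentration producing complete growth inhibition.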

What all share (test): NCI tumour cell line growth inhibition, 48 h
The test system of assay [1] is HT29 colon.
For assay [2], the system named is NCI-H522 lung.
The subject of assay [3] is NCI-H23 lung.
The subject of assay [4] is M14 melanoma.
The subject of assay [5] is HCT-116 colon.
Assay [6] concerns RXF 393 renal.
For assay [7], the system named is HCT-15 colon.
Assay [8] concerns OVCAR-4 ovarian.
Assay [9] deals with MDA-MB-435.
Assay [10] concerns HCC-2998 colon.

Consider `Clc1cccc(N2CCN(CCN3CCc4c([nH]c5ccccc45)C3c3cccnc3)CC2)c1` (stereo unspecified), for which the TGI is > 80.4 µM in [1]; > 100 µM in assay [2]; > 100 µM in assay [3]; > 100 µM in assay [4]; > 91.3 µM in assay [5]; > 100 µM in assay [6]. Moreover, the TGI in assay [7] is > 100 µM; in [8] it was > 100 µM; in [9], > 100 µM; in assay [10] it was > 76.9 µM.

For `Cc1cc(Oc2cnc(=O)[nH]c2)cs1`, the TGI in assay [1], in [2], in [3], in assay [4], in [5] and in assay [7] was > 100 µM in each case. In addition, the TGI in [9] and in assay [10] was > 100 µM throughout.

`CN1CCC(C(=O)Nc2n[nH]c3nc(-c4ccc(O)cc4)c(Br)cc23)CC1`: the GI50 is 4.11 µM and 5.33 µM in [1]; 0.599 µM and 0.603 µM in assay [2]; 4.19 µM and 6.88 µM in [3]; 3.47 µM and 4.68 µM in assay [4]; 776 nM and 855 nM in [5]; 0.442 µM and 0.485 µM in [6]. Also, the GI50 in assay [7] was 6.77 µM and 9.83 µM; in assay [8], 986 nM and 1170 nM; in assay [9], 1570 nM and 1450 nM; in assay [10], 1080 nM and 1320 nM. The TGI in assay [1] is 12.1 µM and 16.1 µM; in [2] it was 1.52 µM and 1.62 µM; in [3] it was 16.1 µM and > 25 µM; in [4] it was 8.42 µM and 9.62 µM; in assay [5], > 25 µM; in assay [6], 1.4 µM and 1.6 µM. Further, the TGI in [7] is > 25 µM; in [8], > 12.4 µM and 6.27 µM; in assay [9], 5.58 µM and 5.61 µM; in assay [10] it was 5.72 µM and 8.32 µM.

Regarding `OC(C1CO1)C(O)C1CO1` (stereo unspecified), the GI50 in [1] was 97.7 µM; in assay [2], 11.3 µM; in [3], 36.4 µM; in assay [4], 28.7 µM; in assay [5], 40200 nM; in assay [6] it was 71.4 µM. The GI50 is 134000 nM in assay [8], 46100 nM in [9] and 60500 nM in [10]. Besides, the TGI in assay [1] was 150 µM and 345 µM; in [2], 94.8 µM and 175 µM; in assay [3], 90 µM and 369 µM; in assay [4], 94.6 µM and 165 µM; in assay [5] it was 110 µM and 209 µM; in [6], 139 µM and 231 µM. For the same compound, the TGI in assay [7] was 131 µM and 406 µM; in assay [8], 150 µM and 299 µM; in [9], 150 µM and 246 µM; in [10], 87.9 µM and 138 µM.

`CC1(C)CCC[C@]2(C)c3cc(O)ccc3CC[C@@H]12`: the GI50 in [1] was 23.2 µM; in assay [2], 21.5 µM; in [3], 17.3 µM; in [4], 28.2 µM; in assay [5], 42200 nM; in [6] it was 16.1 µM. Also, the figures for the GI50 in assay [7], in assay [8] and in [9] were 17.1 µM, 16600 nM and 6650 nM, respectively. Further, the TGI in assay [1] was 43.7 µM; in assay [2] it was 47.4 µM; in [3], 34.3 µM; in assay [4] it was > 100 µM; in assay [5], > 100 µM; in assay [6] it was 35.1 µM. For the same compound, the TGI in assay [7] turned out to be 35.2 µM; in assay [8] it was 33.6 µM; in assay [9], 21 µM.

Take `O=C1c2cc(-c3ccccc3)ccc2-c2c1c1ccc([N+](=O)[O-])cc1c(=O)n2CCCBr`: the GI50 in assay [1] is > 50 µM; in [2] it was > 50 µM; in assay [3], > 50 µM; in [4] it was > 50 µM; in assay [5], > 50000 nM; in assay [6], > 26.3 µM. Also, the GI50 in assay [7] is > 50 µM; in assay [8], > 50000 nM; in assay [9] it was > 50000 nM; in [10] it was > 50000 nM. Further, the TGI was > 50 µM in [1]; > 50 µM in assay [2]; > 50 µM in [3]; > 50 µM in assay [4]; > 50 µM in assay [5]; > 43.7 µM in assay [6]. For the same compound, the TGI in assay [7], in assay [8], in [9] and in assay [10] was > 50 µM in each case.

Turning to `COc1cc2c(cc1OC)C(CC1(O)CCCCC1)N(S(=O)(=O)c1ccc(C)cc1)CC2` (stereo unspecified), the GI50 in assay [1] was > 10 µM; in assay [2] it was > 10 µM; in [3], > 10 µM; in assay [4], > 10 µM; in assay [5] it was > 10000 nM; in assay [6], > 10 µM. The GI50 is > 10 µM in assay [7], > 10000 nM in assay [8], > 10000 nM in assay [9] and > 10000 nM in [10]. In addition, the TGI in assay [1], in assay [2], in assay [3], in [4], in assay [5] and in assay [6] was > 10 µM each time. The TGI in [7], in assay [8], in assay [9] and in [10] was > 10 µM each time.

As to `COc1ccc(SC2c3ccc(C)cc3Oc3nc(N)c(C#N)c(N)c32)cc1` (stereo unspecified), the GI50 in assay [1] is 2.31 µM; in assay [3] it was 1.67 µM; in assay [4], 1.76 µM; in assay [5] it was 1820 nM; in [6] it was 1.65 µM; in assay [7], 1.72 µM. For the same compound, the GI50 in [8] is 1660 nM; in assay [9], 1690 nM; in assay [10], 1730 nM. Further, the TGI was 4.83 µM in assay [1]; 3.31 µM in assay [3]; 3.41 µM in assay [4]; 3.37 µM in [5]; 3.01 µM in assay [6]; 3.3 µM in assay [7]. Further, the results for the TGI in [8], in assay [9] and in [10] were 3.15 µM, 3.16 µM and 3.19 µM, respectively.

In the case of `COc1ccc2c(c1)CCc1[nH]nc(-c3cc(OC)c(OC)c(OC)c3)c1-2`, the GI50 in assay [1] is < 0.01 µM; in [2], < 0.01 µM; in assay [3], < 0.01 µM; in [4] it was < 0.01 µM; in assay [5], < 10 nM; in assay [7] it was < 0.01 µM. The GI50 in assay [8], in assay [9] and in [10] was < 10 nM each time. The TGI in assay [1] was 10.1 µM; in [2] it was < 0.01 µM; in [3], 3.53 µM; in [4], 10.9 µM; in assay [5], 1.16 µM; in [7], 11.8 µM. Also, the TGI is 56.5 µM in assay [8], < 0.01 µM in assay [9] and 11.4 µM in assay [10].
